Assay results taken from US5510355A, “Depolarizing skeletal muscle relaxants” (priority 1994, dated 1996).
Structures can show the parent of a compound that is named as a salt.

The compounds below were run on ganglionic-type neuronal nicotinic receptors (rat pheochromocytoma clonal line PC12) (assay: not given). Conditions: not given.
Type: cell-based
Protocol: (§1) The selectivity at muscle nicotinic receptors of the various analogs described in this invention was determined by their functional efficacies and potencies at muscle and ganglionic sites.
Ganglionic effects were established on the rat pheochromocytoma clonal line PC12 which is a continuous clonal cell line of neural crest origin derived from a tumor of the rat adrenal medulla expressing ganglionic-type neuronal nicotinic receptors. […] Discussion concerning the heterogeneity of nicotinic receptors subtypes is set forth in Lukas et al., Internatl. […] See, Fornasari et al., Neurosci.
(§2) Intact cells on dishes were used for functional studies.
(§3) The medium was removed and ^86 Rb^+ was quantitated using Cerenkov detection. […] Specific ion efflux was determined as the difference in isotope efflux between total and non-specific efflux samples. Dose-response curves were plotted and the concentration resulting in half maximal activation of specific ion flux through nicotinic receptors determined for human muscle and rat ganglionic preparations (EC50).

Compound | RAT GANGLIA Emax (maximal activation as percentage of that induced by acetylcholine) [%]
C[N+](C)(C)CCOC(=O)CCC(=O)OCC[N+](C)(C)C [Sample No. C-2, succinylcholine chloride, reference compound] | 0
O=C(O)/C=C/C(=O)O.O=C(O)/C=C/C(=O)O.c1cncc(C2CC3CCN2CC3)c1 (racemic) [Sample No. 1, (+/-)-2-(3-pyridyl)-quinuclidine difumarate] | 100
Fc1cncc(C2=NCCCC2)c1 [Sample No. 2, 5-fluoroanabaseine dipicrate] | 0
CC(=O)OCC[N+](C)(C)C [C-1, acetylcholine, reference compound] | 100
CC(=O)OCC1CC2CCN1CC2.[O-][Cl+3]([O-])([O-])O (racemic) [Sample No. 4, (+/-)-2-acetoxymethylquinuclidine perchlorate] | 60
Fc1cncc(C2CCCN2)c1 (racemic) [Sample No. 5, (+/-)-5-fluoronornicotine] | < 10
CN1CCCC1c1cncc(Cl)c1.[O-][Cl+3]([O-])([O-])O (racemic) [Sample No. 6, (+/-)-5-chloronicotine perchlorate] | 0

Same assay, conditions: ganglionic-type receptors

Compound | ganglionic effects, in words
O=C(O)/C=C/C(=O)O.O=C(O)/C=C/C(=O)O.c1cncc(C2CC3CCN2CC3)c1 (racemic) [Sample No. 1, (+/-)-2-(3-pyridyl)-quinuclidine difumarate] | only at relatively high concentrations
Fc1cncc(C2=NCCCC2)c1 [Sample No. 2, 5-fluoroanabaseine dipicrate] | no observed ganglionic effects
CC(=O)OCC1CC2CCN1CC2.[O-][Cl+3]([O-])([O-])O (racemic) [Sample No. 4, (+/-)-2-acetoxymethylquinuclidine perchlorate] | only at relatively high concentrations
c1cncc(C2=NCCCC2)c1 [Sample No. 3, anabaseine dihydrochloride] | only at relatively high concentrations

Same assay, conditions: rat ganglia, PC12, 86Rb+ efflux, 4 minutes at 20° C.; read-out: RAT GANGLIA EC50 (concentration resulting in half maximal activation of specific ion flux)

Compound | EC50 [µM]
O=C(O)/C=C/C(=O)O.O=C(O)/C=C/C(=O)O.c1cncc(C2CC3CCN2CC3)c1 (racemic) [Sample No. 1, (+/-)-2-(3-pyridyl)-quinuclidine difumarate] | 2
CC(=O)OCC1CC2CCN1CC2.[O-][Cl+3]([O-])([O-])O (racemic) [Sample No. 4, (+/-)-2-acetoxymethylquinuclidine perchlorate] | 50

Same assay, conditions: rat ganglia, PC12, % of acetylcholine maximum

Compound | RAT GANGLIA Emax (maximal activation as percentage of that induced by acetylcholine) [%]
c1cncc(C2=NCCCC2)c1 [Sample No. 3, anabaseine dihydrochloride] | 80

Same assay, conditions: read-out: RAT GANGLIA EC50 (concentration resulting in half maximal activation of specific ion flux); rat ganglia, PC12, 86Rb+ efflux, 4 minutes at 20° C.

Compound | EC50 [µM]
c1cncc(C2=NCCCC2)c1 [Sample No. 3, anabaseine dihydrochloride] | 50

These compounds were tested against T1, muscle-like nicotinic receptors (human clonal line TE671/RD) (Homo sapiens, UniProt P02708+P07510+Q07001) (assay: cell-based). Conditions: not given.
T1 construct: these cells express muscle-like nicotinic receptors; endogenous in cells; host or cells: TE671/RD (human embryonal rhabdomyosarcoma line)
Protocol: as §1, §2, §3

T1 sequence (P07510 23-517): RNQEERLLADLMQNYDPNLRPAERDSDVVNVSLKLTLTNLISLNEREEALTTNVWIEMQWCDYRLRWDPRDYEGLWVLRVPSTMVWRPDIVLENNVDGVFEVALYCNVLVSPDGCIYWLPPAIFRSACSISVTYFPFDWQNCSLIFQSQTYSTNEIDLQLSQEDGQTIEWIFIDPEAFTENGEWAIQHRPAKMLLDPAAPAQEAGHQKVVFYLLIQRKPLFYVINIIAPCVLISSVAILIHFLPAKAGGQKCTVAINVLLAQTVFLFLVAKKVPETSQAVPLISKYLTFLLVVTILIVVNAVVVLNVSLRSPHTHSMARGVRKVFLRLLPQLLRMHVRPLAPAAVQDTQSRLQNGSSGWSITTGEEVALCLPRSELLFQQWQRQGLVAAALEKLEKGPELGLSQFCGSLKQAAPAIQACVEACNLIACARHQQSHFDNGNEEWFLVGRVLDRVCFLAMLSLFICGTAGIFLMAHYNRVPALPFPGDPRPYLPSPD
T1 sequence (P02708 21-457): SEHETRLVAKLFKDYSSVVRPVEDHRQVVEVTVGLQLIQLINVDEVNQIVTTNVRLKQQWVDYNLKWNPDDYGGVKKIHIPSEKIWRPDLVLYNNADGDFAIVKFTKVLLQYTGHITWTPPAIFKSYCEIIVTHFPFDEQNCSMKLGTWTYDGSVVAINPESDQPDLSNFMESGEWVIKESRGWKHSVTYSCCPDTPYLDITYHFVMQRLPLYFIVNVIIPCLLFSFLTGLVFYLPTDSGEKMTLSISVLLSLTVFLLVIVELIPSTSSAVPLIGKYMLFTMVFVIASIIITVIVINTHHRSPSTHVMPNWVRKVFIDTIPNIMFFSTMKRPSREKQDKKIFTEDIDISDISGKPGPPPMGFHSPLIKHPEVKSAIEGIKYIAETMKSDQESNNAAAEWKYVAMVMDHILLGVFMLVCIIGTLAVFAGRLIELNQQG
T1 sequence (Q07001 22-517): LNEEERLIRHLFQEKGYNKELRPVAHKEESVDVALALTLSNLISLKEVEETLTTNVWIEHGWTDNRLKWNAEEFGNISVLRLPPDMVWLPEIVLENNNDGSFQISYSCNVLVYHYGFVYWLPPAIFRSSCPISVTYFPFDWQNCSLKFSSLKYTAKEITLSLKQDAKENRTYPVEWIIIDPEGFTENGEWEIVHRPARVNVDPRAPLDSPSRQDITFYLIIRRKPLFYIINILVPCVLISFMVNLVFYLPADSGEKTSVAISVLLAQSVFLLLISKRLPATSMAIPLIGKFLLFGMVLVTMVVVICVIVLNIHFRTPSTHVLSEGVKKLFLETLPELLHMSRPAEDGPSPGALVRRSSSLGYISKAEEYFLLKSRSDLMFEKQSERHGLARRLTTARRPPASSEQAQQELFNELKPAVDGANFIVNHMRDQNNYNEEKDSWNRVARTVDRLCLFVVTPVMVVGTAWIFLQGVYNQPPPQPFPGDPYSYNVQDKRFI

Compound | EC50 [µM]
c1cncc(C2=NCCCC2)c1 [Sample No. 3, anabaseine dihydrochloride] | 2

Same assay, conditions: TE671/RD, read-out: HUMAN MUSCLE Emax (maximal activation as percentage of that induced by acetylcholine)

Compound | Emax [%]
C[N+](C)(C)CCOC(=O)CCC(=O)OCC[N+](C)(C)C [Sample No. C-2, succinylcholine chloride, reference compound] | 95
O=C(O)/C=C/C(=O)O.O=C(O)/C=C/C(=O)O.c1cncc(C2CC3CCN2CC3)c1 (racemic) [Sample No. 1, (+/-)-2-(3-pyridyl)-quinuclidine difumarate] | 130
Fc1cncc(C2=NCCCC2)c1 [Sample No. 2, 5-fluoroanabaseine dipicrate] | 220
CC(=O)OCC1CC2CCN1CC2.[O-][Cl+3]([O-])([O-])O (racemic) [Sample No. 4, (+/-)-2-acetoxymethylquinuclidine perchlorate] | 200
Fc1cncc(C2CCCN2)c1 (racemic) [Sample No. 5, (+/-)-5-fluoronornicotine] | 160
c1cncc(C2=NCCCC2)c1 [Sample No. 3, anabaseine dihydrochloride] | 200
CN1CCCC1c1cncc(Cl)c1.[O-][Cl+3]([O-])([O-])O (racemic) [Sample No. 6, (+/-)-5-chloronicotine perchlorate] | 110

Same assay, conditions: human muscle, TE671/RD, 86Rb+ efflux, 4 minutes at 20° C.; read-out: HUMAN MUSCLE EC50 (concentration resulting in half maximal activation of specific ion flux)

Compound | EC50 [µM]
C[N+](C)(C)CCOC(=O)CCC(=O)OCC[N+](C)(C)C [Sample No. C-2, succinylcholine chloride, reference compound] | 30
O=C(O)/C=C/C(=O)O.O=C(O)/C=C/C(=O)O.c1cncc(C2CC3CCN2CC3)c1 (racemic) [Sample No. 1, (+/-)-2-(3-pyridyl)-quinuclidine difumarate] | 0.055
Fc1cncc(C2=NCCCC2)c1 [Sample No. 2, 5-fluoroanabaseine dipicrate] | 1
CC(=O)OCC1CC2CCN1CC2.[O-][Cl+3]([O-])([O-])O (racemic) [Sample No. 4, (+/-)-2-acetoxymethylquinuclidine perchlorate] | 3
Fc1cncc(C2CCCN2)c1 (racemic) [Sample No. 5, (+/-)-5-fluoronornicotine] | 30
CN1CCCC1c1cncc(Cl)c1.[O-][Cl+3]([O-])([O-])O (racemic) [Sample No. 6, (+/-)-5-chloronicotine perchlorate] | 30

Same assay, conditions: human muscle; comparison of EC50 values with Sample No. C-2

Compound | potency relative to succinylcholine, in words
O=C(O)/C=C/C(=O)O.O=C(O)/C=C/C(=O)O.c1cncc(C2CC3CCN2CC3)c1 (racemic) [Sample No. 1, (+/-)-2-(3-pyridyl)-quinuclidine difumarate] | more potent
Fc1cncc(C2=NCCCC2)c1 [Sample No. 2, 5-fluoroanabaseine dipicrate] | very potent relative to succinylcholine
CC(=O)OCC1CC2CCN1CC2.[O-][Cl+3]([O-])([O-])O (racemic) [Sample No. 4, (+/-)-2-acetoxymethylquinuclidine perchlorate] | more potent
Fc1cncc(C2CCCN2)c1 (racemic) [Sample No. 5, (+/-)-5-fluoronornicotine] | at least as potent as succinylcholine
c1cncc(C2=NCCCC2)c1 [Sample No. 3, anabaseine dihydrochloride] | more potent
CN1CCCC1c1cncc(Cl)c1.[O-][Cl+3]([O-])([O-])O (racemic) [Sample No. 6, (+/-)-5-chloronicotine perchlorate] | at least as potent as succinylcholine

Same assay, conditions: human muscle; comparison of Emax values with Sample No. C-2

Compound | efficacy relative to succinylcholine, in words
O=C(O)/C=C/C(=O)O.O=C(O)/C=C/C(=O)O.c1cncc(C2CC3CCN2CC3)c1 (racemic) [Sample No. 1, (+/-)-2-(3-pyridyl)-quinuclidine difumarate] | more efficacious than succinylcholine
Fc1cncc(C2=NCCCC2)c1 [Sample No. 2, 5-fluoroanabaseine dipicrate] | very efficacious relative to succinylcholine
CC(=O)OCC1CC2CCN1CC2.[O-][Cl+3]([O-])([O-])O (racemic) [Sample No. 4, (+/-)-2-acetoxymethylquinuclidine perchlorate] | more efficacious than succinylcholine
Fc1cncc(C2CCCN2)c1 (racemic) [Sample No. 5, (+/-)-5-fluoronornicotine] | more efficacious than succinylcholine
c1cncc(C2=NCCCC2)c1 [Sample No. 3, anabaseine dihydrochloride] | more efficacious than succinylcholine
CN1CCCC1c1cncc(Cl)c1.[O-][Cl+3]([O-])([O-])O (racemic) [Sample No. 6, (+/-)-5-chloronicotine perchlorate] | more efficacious than succinylcholine
